# From ChEMBL document CHEMBL1201862, “PubChem BioAssay data set” (2004)
# Activity calls are given as the source filed them. Unless noted, the calls are words filed in the database; no cut-off is given here.
# Assays:
# Erythrocyte = assay: FACS-based assay to assess parasite growth inhibition 96 hr Measured in Cell-Based System Using Flow Cytometry - 2126-05_Inhibitor_Dose_DryPowder_Activity. [Related pubchem assays (depositor defined):AID488774]; type: functional; conditions: Homo sapiens
# [1] = FACS-based assay to assess parasite growth inhibition 48 hr Measured in Cell-Based System Using Flow Cytometry - 2126-03_Inhibitor_Dose_DryPowder_Activity. [Related pubchem assays (depositor defined):AID488774]; type: functional; conditions: Homo sapiens
# [2] = A cell-based HTS for delayed death inhibitors of the malarial parasite plastid Measured in Microorganism System Using Plate Reader - 2126-02_Inhibitor_Dose_DryPowder_Activity.; type: functional, organism-based
# [3] = A cell-based HTS for delayed death inhibitors of the malarial parasite plastid Measured in Microorganism System Using Plate Reader - 2126-01_Inhibitor_Dose_DryPowder_Activity.; type: functional, organism-based
# [4] = test system: Streptococcus sp. 'group A'; assay: Streptococcus pyogenes SK(-)GAS viability under kanamycin – luminescence, BacTiterGlo, confirmation, counter-screen for streptokinase expression inhibitor project, dose response (AID 1900); type: functional, organism-based
# Streptokinase A = target: T1, Streptokinase A (Streptococcus pyogenes serotype M1, UniProt P10520); assay: viability-normalized secreted streptokinase activity reduction – plasminogen activation absorbance, OD405, dose response (AID 1914); type: functional, Streptococcus pyogenes M1 GAS;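 further: secreted streptokinase activity via plasminogen activation per viability signal from cell pellet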
# T1 sequence (P10520 whole entry): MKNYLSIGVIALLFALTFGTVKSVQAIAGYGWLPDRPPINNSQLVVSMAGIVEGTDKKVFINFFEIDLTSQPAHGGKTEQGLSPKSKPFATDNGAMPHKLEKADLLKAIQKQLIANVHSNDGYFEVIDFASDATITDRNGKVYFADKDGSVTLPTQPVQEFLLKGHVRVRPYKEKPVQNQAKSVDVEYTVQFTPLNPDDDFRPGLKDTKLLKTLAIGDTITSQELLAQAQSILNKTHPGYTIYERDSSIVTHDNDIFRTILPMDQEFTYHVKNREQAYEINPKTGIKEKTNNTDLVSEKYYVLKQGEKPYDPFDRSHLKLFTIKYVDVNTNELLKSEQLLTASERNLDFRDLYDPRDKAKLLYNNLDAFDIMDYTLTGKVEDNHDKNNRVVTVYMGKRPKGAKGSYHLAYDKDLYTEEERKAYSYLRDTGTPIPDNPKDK
# Large T antigen = Large T antigen (Simian virus 40, UniProt P03070); type: functional, Betapolyomavirus macacae;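 further: Confirmatory-stage PubChem screen for compounds that inhibit SV40 T antigen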
# Streptococcus = assay: GAS UMAA2166 growth inhibition – luminescence, BacTiterGlo, counter-screen for streptokinase expression inhibitor project, dose response (AID 1915); type: functional, organism-based;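 further: potency for reduction of bacterial viability or growth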
# CHO = CHO cell viability loss, potency – luminescence, cytotoxicity control for TLR9-MyD88 binding inhibitor project, dose response (AID 588339); type: functional, cell-based, hamster; conditions: Cricetulus griseus;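 further: CHO cells stably coexpressing TLR9 and MyD88 fusions from primary screen; compound exposure lasted 48 hours before viability readout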
# Insulin-degrading enzyme [5] = target: T2, Insulin-degrading enzyme (Homo sapiens, UniProt P14735); assay: recombinant IDE activation, cell-free – biochemical, fluorescence polarization, counter-screen for IDE activator project, dose response (AID 588681)
# T2 sequence (P14735 whole entry): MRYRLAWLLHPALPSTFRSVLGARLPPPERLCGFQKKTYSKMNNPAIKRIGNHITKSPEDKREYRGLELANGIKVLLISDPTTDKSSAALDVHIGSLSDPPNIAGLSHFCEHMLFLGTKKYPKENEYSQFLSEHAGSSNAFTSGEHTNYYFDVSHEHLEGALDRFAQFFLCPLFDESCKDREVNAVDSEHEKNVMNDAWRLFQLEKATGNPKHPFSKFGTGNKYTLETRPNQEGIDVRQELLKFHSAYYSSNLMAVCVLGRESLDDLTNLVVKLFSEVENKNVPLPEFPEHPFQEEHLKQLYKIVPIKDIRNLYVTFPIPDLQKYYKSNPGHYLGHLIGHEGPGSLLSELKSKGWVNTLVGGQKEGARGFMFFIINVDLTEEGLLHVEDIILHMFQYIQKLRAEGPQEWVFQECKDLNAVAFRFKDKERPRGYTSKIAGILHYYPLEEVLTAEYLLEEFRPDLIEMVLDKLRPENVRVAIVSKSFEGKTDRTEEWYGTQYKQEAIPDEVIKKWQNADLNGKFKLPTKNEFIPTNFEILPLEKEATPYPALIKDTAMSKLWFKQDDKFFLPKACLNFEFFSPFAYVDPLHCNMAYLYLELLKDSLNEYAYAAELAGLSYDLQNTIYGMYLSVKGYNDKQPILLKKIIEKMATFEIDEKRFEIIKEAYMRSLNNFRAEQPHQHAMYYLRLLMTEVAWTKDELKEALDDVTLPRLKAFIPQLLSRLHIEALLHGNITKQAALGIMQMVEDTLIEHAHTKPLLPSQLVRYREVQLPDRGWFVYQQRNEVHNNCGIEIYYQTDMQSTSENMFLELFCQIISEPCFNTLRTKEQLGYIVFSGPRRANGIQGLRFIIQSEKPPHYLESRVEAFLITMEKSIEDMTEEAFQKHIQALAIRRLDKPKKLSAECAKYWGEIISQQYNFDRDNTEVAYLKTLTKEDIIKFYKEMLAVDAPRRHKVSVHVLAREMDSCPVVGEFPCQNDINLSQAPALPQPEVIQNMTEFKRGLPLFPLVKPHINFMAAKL
# Insulin-degrading enzyme [6] = target: T2, Insulin-degrading enzyme; assay: cellular IDE activation of Abeta substrate cleavage – fluorescence polarization, HEK cells, dose response (AID 588439); type: functional, cell-based
# HEK293 [7] = assay: membrane integrity loss in HEK cells – cell-based, fluorescence, cytotoxicity control for IDE activator project, dose response (AID 588440); type: functional; conditions: Homo sapiens;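 further: cytotoxicity by LDH release measuring loss of membrane integrity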
# HEK293 [8] = assay: optical interference in Abeta FP readout, dose response, artefact control for IDE activator project, biochemical, fluorescence polarization (AID 588442); type: functional, cell-based; conditions: Homo sapiens
# [9] = target: 26S proteasome non-ATPase regulatory subunit 14 (Homo sapiens, UniProt O00487); assay: inhibition of proteasome subunit RPN11 – biochemical, fluorescence polarization, uHTS hits, confirmation (AID 602368); type: functional
# [10] = target: 72 kDa type IV collagenase (Homo sapiens, UniProt P08253); assay: Dose Response validation of uHTS RPN11 inhibitor hits using a MMP-2 Fluorescence assay.; type: functional
# Prothrombin = Prothrombin (Bos taurus, UniProt P00735); assay: thrombin protease inhibitors – biochemical, fluorescence polarization, uHTS hits, dose response (AID 602369); type: functional
# [11] = target: Melanin-concentrating hormone receptor 1 (Homo sapiens, UniProt Q99705); assay: Late-stage fluorescence-based counterscreen for antagonists of the G-protein coupled receptor 7 (GPR7): cell-based dose response assay to identify antagonists of the melanin-concentrating hormone receptor 1 (MCHR1) Set 5.; type: functional
# Melanin-concentrating hormone receptor 1, sequence (Q99705 whole entry): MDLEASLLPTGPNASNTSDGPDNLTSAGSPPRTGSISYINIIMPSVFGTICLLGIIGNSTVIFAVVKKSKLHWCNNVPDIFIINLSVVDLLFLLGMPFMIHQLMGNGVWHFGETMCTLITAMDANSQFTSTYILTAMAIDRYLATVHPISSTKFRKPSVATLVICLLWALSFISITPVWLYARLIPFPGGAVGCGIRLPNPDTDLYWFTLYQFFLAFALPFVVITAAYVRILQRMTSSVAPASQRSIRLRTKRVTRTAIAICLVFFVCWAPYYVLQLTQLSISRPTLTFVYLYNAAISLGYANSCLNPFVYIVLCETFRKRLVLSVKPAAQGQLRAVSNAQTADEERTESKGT
# 72 kDa type IV collagenase, sequence (P08253 whole entry): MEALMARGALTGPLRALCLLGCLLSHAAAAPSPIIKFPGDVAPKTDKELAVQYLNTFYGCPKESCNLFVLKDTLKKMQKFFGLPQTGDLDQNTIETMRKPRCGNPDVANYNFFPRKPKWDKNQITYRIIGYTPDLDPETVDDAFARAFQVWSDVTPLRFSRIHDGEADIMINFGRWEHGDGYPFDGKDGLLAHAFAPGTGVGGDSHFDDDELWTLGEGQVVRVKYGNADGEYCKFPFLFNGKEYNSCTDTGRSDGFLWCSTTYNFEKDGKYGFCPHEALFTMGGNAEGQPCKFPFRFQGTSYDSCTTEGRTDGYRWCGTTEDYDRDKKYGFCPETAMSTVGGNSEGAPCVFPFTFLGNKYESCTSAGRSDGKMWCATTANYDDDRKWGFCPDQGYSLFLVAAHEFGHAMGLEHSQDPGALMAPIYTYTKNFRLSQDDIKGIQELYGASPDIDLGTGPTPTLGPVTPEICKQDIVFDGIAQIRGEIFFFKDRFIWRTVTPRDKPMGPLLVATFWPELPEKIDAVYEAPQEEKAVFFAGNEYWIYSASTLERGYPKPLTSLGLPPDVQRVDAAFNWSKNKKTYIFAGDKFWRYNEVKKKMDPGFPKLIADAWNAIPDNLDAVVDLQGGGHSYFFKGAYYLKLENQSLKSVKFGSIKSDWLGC
# Large T antigen, sequence (P03070 whole entry): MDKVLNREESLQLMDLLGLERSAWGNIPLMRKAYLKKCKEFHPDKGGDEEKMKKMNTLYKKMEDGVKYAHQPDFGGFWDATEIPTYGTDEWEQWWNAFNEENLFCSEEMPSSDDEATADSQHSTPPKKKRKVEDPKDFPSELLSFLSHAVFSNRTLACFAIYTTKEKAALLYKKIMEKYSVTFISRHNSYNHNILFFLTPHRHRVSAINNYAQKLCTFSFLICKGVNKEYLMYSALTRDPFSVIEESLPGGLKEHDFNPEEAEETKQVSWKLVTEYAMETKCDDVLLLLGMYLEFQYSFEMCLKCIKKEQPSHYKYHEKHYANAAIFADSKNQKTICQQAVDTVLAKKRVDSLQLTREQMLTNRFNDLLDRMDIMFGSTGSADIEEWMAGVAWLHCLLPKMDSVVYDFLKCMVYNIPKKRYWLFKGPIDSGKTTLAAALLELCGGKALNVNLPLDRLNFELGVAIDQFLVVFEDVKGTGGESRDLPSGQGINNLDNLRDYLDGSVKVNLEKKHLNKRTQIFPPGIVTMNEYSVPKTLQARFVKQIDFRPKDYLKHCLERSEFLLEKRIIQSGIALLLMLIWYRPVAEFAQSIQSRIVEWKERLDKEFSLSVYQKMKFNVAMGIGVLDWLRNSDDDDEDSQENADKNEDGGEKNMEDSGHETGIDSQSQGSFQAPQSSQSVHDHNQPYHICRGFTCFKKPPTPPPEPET
# 26S proteasome non-ATPase regulatory subunit 14, sequence (O00487 whole entry): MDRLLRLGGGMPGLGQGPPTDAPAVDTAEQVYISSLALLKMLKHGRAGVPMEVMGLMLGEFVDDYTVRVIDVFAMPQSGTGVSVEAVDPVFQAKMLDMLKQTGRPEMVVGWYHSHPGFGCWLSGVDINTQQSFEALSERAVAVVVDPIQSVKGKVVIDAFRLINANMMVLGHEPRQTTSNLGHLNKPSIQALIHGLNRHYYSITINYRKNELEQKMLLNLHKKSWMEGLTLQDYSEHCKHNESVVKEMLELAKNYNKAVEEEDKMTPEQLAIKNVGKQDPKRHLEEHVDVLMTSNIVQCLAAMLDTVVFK
compound,measurement,setting,value
COCCOC(=O)N(C)C[C@@H]1OCCCC[C@H](C)Oc2ccc(NC(=O)Nc3ccccc3)cc2C(=O)N([C@@H](C)CO)C[C@H]1C,AC50,Erythrocyte,13.4 µM (active)
same,AC50,[1],10.9 µM (active)
same,AC50,[2],> 5 µM (inactive)
same,AC50,[3],> 5 µM (inactive)
C#CCOCCOCCOCCNc1nc(N2CCN(C(=O)CCCCCCCCCCNC(=O)[C@H](CCCCN)n3cc(C[C@@H](C)CC)nn3)CC2)nc(N2CCN(C(=O)CCCCCCCCCCNC(=O)[C@H](CCCCN)n3cc(C[C@@H](C)CC)nn3)CC2)n1,EC50,[4],2.86 µM (active)
same,EC50,Streptokinase A,13.9 µM (active)
same,IC50,Large T antigen,36.5 µM (active)
same,EC50,Streptococcus,> 150 µM (not active)
same,IC50,CHO,5.63 µM (active)
same,EC50,Insulin-degrading enzyme [5],9.71 µM (active)
same,EC50,Insulin-degrading enzyme [6],> 2.03 µM (active)
same,IC50,HEK293 [7],4.19 µM (active)
same,EC50,HEK293 [8],> 54.7 µM (inactive)
same,IC50,[9],16.2 µM (active)
same,IC50,[10],> 100 µM (inactive)
same,IC50,Prothrombin,24.5 µM (active)
CCc1cccc(Oc2c(Cl)cnn(Cc3cccc4ccccc34)c2=O)c1,IC50,[11],> 20 µM (inactive)
